Results taken from ChEMBL document CHEMBL1135136, “Carbonic anhydrase inhibitors. Preparation of potent sulfonamides inhibitors incorporating bile acid tails” (Bioorg Med Chem Lett, 2002).

Assays:
Carbonic anhydrase 2 = Carbonic anhydrase 2 (Homo sapiens, UniProt P00918)
Description: Inhibitory activity against human recombinant carbonic anhydrase II (CA2)

Carbonic anhydrase 4 = target: T1, Carbonic anhydrase 4 (Bos taurus, UniProt Q95323)
T1 sequence (Q95323 whole entry): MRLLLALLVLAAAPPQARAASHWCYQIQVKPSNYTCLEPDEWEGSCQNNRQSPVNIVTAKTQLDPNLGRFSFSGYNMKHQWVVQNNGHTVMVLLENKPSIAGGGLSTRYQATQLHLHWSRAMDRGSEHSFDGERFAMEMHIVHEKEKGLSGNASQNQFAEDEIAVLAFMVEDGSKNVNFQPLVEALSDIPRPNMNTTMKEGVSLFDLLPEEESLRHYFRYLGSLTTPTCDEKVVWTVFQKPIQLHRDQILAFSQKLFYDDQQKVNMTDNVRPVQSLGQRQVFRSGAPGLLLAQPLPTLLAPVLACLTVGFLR
Description: Inhibitory activity against bovine carbonic anhydrase IV (CA4), obtained from bovine lung microsomes

Carbonic anhydrase 1 = Carbonic anhydrase 1 (Homo sapiens, UniProt P00915)
Carbonic anhydrase 1, sequence (P00915 whole entry): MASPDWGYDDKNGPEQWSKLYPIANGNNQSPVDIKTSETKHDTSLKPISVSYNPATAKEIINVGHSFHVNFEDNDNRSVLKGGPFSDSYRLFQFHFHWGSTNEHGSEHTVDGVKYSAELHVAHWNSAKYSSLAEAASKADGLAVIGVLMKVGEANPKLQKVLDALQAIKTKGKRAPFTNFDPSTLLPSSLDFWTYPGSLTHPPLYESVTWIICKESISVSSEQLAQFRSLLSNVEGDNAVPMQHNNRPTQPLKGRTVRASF
Description: Inhibitory activity against human recombinant carbonic anhydrase I (CA1)

Row | Ki (Carbonic anhydrase 2) [nM] | Ki (Carbonic anhydrase 4) [nM] | Ki (Carbonic anhydrase 1) [nM] | SMILES
1 | 210 | 740 | 9500 | C[C@H](CCC(=O)Nc1cccc(S(N)(=O)=O)c1)[C@H]1CC[C@H]2[C@@H]3CC[C@@H]4C[C@H](O)CC[C@]4(C)[C@H]3CC[C@]12C
2 | 280 | 975 | 20100 | C[C@H](CCC(=O)Nc1ccccc1S(N)(=O)=O)[C@H]1CC[C@H]2[C@@H]3CC[C@@H]4C[C@H](O)CC[C@]4(C)[C@H]3C[C@H](O)[C@]12C
3 | 12 | 115 | 700 | C[C@H](CCC(=O)/N=c1/sc(S(N)(=O)=O)nn1C)[C@H]1CC[C@H]2[C@@H]3[C@H](O)C[C@@H]4C[C@H](O)CC[C@]4(C)[C@H]3C[C@H](O)[C@]12C
4 | 156 | 440 | 7440 | C[C@H](CCC(=O)Nc1cccc(S(N)(=O)=O)c1)[C@H]1CC[C@H]2[C@@H]3C(=O)C[C@@H]4CC(=O)CC[C@]4(C)[C@H]3CC(=O)[C@]12C
5 | 245 | 900 | 22100 | C[C@H](CCC(=O)Nc1ccccc1S(N)(=O)=O)[C@H]1CC[C@H]2[C@@H]3[C@H](O)C[C@@H]4C[C@H](O)CC[C@]4(C)[C@H]3CC[C@]12C
6 | 86 | 220 | 3400 | C[C@H](CCC(=O)NCCc1ccc(S(N)(=O)=O)cc1)[C@H]1CC[C@H]2[C@@H]3[C@H](O)C[C@@H]4C[C@H](O)CC[C@]4(C)[C@H]3C[C@H](O)[C@]12C
7 | 310 | 920 | 21300 | C[C@H](CCC(=O)NNc1ccc(S(N)(=O)=O)cc1)[C@H]1CC[C@H]2[C@@H]3CC[C@@H]4C[C@H](O)CC[C@]4(C)[C@H]3C[C@H](O)[C@]12C
8 | 70 | 147 | 3700 | C[C@H](CCC(=O)Nc1ccc(S(N)(=O)=O)cc1)[C@H]1CC[C@H]2[C@@H]3C(=O)C[C@@H]4CC(=O)CC[C@]4(C)[C@H]3CC(=O)[C@]12C
9 | 210 | 355 | 12000 | C[C@H](CCC(=O)Nc1ccc(S(N)(=O)=O)cc1)[C@H]1CC[C@H]2[C@@H]3CC[C@@H]4C[C@H](O)CC[C@]4(C)[C@H]3C[C@H](O)[C@]12C
10 | 52 | 240 | 410 | C[C@H](CCC(=O)Nc1nnc(S(N)(=O)=O)s1)[C@H]1CC[C@H]2[C@@H]3[C@H](O)C[C@@H]4C[C@H](O)CC[C@]4(C)[C@H]3CC[C@]12C
11 | 97 | 280 | 1200 | C[C@H](CCC(=O)OCc1ccc(S(N)(=O)=O)cc1)[C@H]1CC[C@H]2[C@@H]3[C@H](O)C[C@@H]4C[C@H](O)CC[C@]4(C)[C@H]3C[C@H](O)[C@]12C
12 | 32 | 69 | 120 | C[C@H](CCC(=O)Nc1ccc(S(N)(=O)=O)cc1I)[C@H]1CC[C@H]2[C@@H]3CC[C@@H]4C[C@H](O)CC[C@]4(C)[C@H]3CC[C@]12C
13 | 6.1 | 12 | 47 | C[C@H](CCC(=O)Oc1ccc2nc(S(N)(=O)=O)sc2c1)[C@H]1CC[C@H]2[C@@H]3[C@H](O)C[C@@H]4C[C@H](O)CC[C@]4(C)[C@H]3CC[C@]12C
14 | 218 | 1350 | 23000 | C[C@H](CCC(=O)Nc1cccc(S(N)(=O)=O)c1)[C@H]1CC[C@H]2[C@@H]3[C@H](O)C[C@@H]4C[C@H](O)CC[C@]4(C)[C@H]3C[C@H](O)[C@]12C
15 | 1.2 | 31 | 250 | C[C@H](CCC(=O)NCCC(=O)Nc1nnc(S(N)(=O)=O)s1)[C@H]1CC[C@H]2[C@@H]3[C@H](O)C[C@@H]4C[C@H](O)CC[C@]4(C)[C@H]3C[C@H](O)[C@]12C
16 | 50 | 130 | 200 | C[C@H](CCC(=O)Nc1nnc(S(N)(=O)=O)s1)[C@H]1CC[C@H]2[C@@H]3CC[C@@H]4C[C@H](O)CC[C@]4(C)[C@H]3C[C@H](O)[C@]12C

Row | Ki (Carbonic anhydrase 2) [nM] | Ki (Carbonic anhydrase 4) [nM] | Ki (Carbonic anhydrase 1) [nM] | SMILES
17 | 0.9 | 16 | 48 | C[C@H](CCC(=O)Nc1nnc(S(N)(=O)=O)s1)[C@H]1CC[C@H]2[C@@H]3[C@@H](O)C[C@@H]4C[C@H](O)CC[C@]4(C)[C@H]3CC[C@]12C
18 | 42 | 96 | 780 | C[C@H](CCC(=O)Nc1ccc(S(N)(=O)=O)cc1F)[C@H]1CC[C@H]2[C@@H]3CC[C@@H]4C[C@H](O)CC[C@]4(C)[C@H]3C[C@H](O)[C@]12C
19 | 9 | 46 | 71 | C[C@H](CCC(=O)Nc1cc(Cl)c(S(N)(=O)=O)cc1S(N)(=O)=O)[C@H]1CC[C@H]2[C@@H]3[C@@H](O)C[C@@H]4C[C@H](O)CC[C@]4(C)[C@H]3CC[C@]12C
20 | 81 | 310 | 625 | C[C@H](CCC(=O)OCCc1ccc(S(N)(=O)=O)cc1)[C@H]1CC[C@H]2[C@@H]3CC[C@@H]4C[C@H](O)CC[C@]4(C)[C@H]3CC[C@]12C
21 | 5 | 10 | 35 | C[C@H](CCC(=O)Nc1ccc2nc(S(N)(=O)=O)sc2c1)[C@H]1CC[C@H]2[C@@H]3[C@H](O)C[C@@H]4C[C@H](O)CC[C@]4(C)[C@H]3C[C@H](O)[C@]12C
22 | 50 | 123 | 415 | C[C@H](CCC(=O)OCCc1ccc(S(N)(=O)=O)cc1)[C@H]1CC[C@H]2[C@@H]3C(=O)C[C@@H]4CC(=O)CC[C@]4(C)[C@H]3CC(=O)[C@]12C
23 | 15 | 28 | 210 | C[C@H](CCC(=O)Nc1ccc(S(N)(=O)=O)cc1F)[C@H]1CC[C@H]2[C@@H]3C(=O)C[C@@H]4CC(=O)CC[C@]4(C)[C@H]3CC(=O)[C@]12C
24 | 6.5 | 12 | 56 | C[C@H](CCC(=O)Nc1ccc2nc(S(N)(=O)=O)sc2c1)[C@H]1CC[C@H]2[C@@H]3CC[C@@H]4C[C@H](O)CC[C@]4(C)[C@H]3C[C@H](O)[C@]12C
25 | 13 | 20 | 67 | C[C@H](CCC(=O)Nc1ccc(S(N)(=O)=O)cc1I)[C@H]1CC[C@H]2[C@@H]3[C@@H](O)C[C@@H]4C[C@H](O)CC[C@]4(C)[C@H]3CC[C@]12C
26 | 48 | 83 | 910 | C[C@H](CCC(=O)NCc1ccc(S(N)(=O)=O)cc1)[C@H]1CC[C@H]2[C@@H]3CC[C@@H]4C[C@H](O)CC[C@]4(C)[C@H]3CC[C@]12C
27 | 20 | 100 | 285 | C[C@H](CCC(=O)Nc1c(S(N)(=O)=O)cc(S(N)(=O)=O)c(Cl)c1Cl)[C@H]1CC[C@H]2[C@@H]3CC[C@@H]4C[C@H](O)CC[C@]4(C)[C@H]3C[C@H](O)[C@]12C
28 | 2.1 | 19 | 200 | C[C@H](CCC(=O)NCCC(=O)Nc1nnc(S(N)(=O)=O)s1)[C@H]1CC[C@H]2[C@@H]3CC[C@@H]4C[C@H](O)CC[C@]4(C)[C@H]3CC[C@]12C
29 | 21 | 53 | 120 | C[C@H](CCC(=O)Nc1ccc(S(N)(=O)=O)cc1Br)[C@H]1CC[C@H]2[C@@H]3CC[C@@H]4C[C@H](O)CC[C@]4(C)[C@H]3CC[C@]12C
30 | 270 | 750 | 9200 | C[C@H](CCC(=O)Nc1ccccc1S(N)(=O)=O)[C@H]1CC[C@H]2[C@@H]3CC[C@@H]4C[C@H](O)CC[C@]4(C)[C@H]3CC[C@]12C
31 | 275 | 1200 | 25500 | C[C@H](CCC(=O)Nc1ccccc1S(N)(=O)=O)[C@H]1CC[C@H]2[C@@H]3[C@H](O)C[C@@H]4C[C@H](O)CC[C@]4(C)[C@H]3C[C@H](O)[C@]12C

Row | SMILES | Ki (Carbonic anhydrase 2) [nM] | Ki (Carbonic anhydrase 4) [nM] | Ki (Carbonic anhydrase 1) [nM]
32 | C[C@H](CCC(=O)OCc1ccc(S(N)(=O)=O)cc1)[C@H]1CC[C@H]2[C@@H]3[C@H](O)C[C@@H]4C[C@H](O)CC[C@]4(C)[C@H]3CC[C@]12C | 98 | 340 | 1230
33 | C[C@H](CCC(=O)NCCc1ccc(S(N)(=O)=O)cc1)[C@H]1CC[C@H]2[C@@H]3C(=O)C[C@@H]4CC(=O)CC[C@]4(C)[C@H]3CC(=O)[C@]12C | 18 | 29 | 285
34 | C[C@H](CCC(=O)OCc1ccc(S(N)(=O)=O)cc1)[C@H]1CC[C@H]2[C@@H]3C(=O)C[C@@H]4CC(=O)CC[C@]4(C)[C@H]3CC(=O)[C@]12C | 71 | 200 | 450
35 | C[C@H](CCC(=O)Nc1cc(Cl)c(S(N)(=O)=O)cc1S(N)(=O)=O)[C@H]1CC[C@H]2[C@@H]3CC[C@@H]4C[C@H](O)CC[C@]4(C)[C@H]3C[C@H](O)[C@]12C | 55 | 121 | 225
36 | C[C@H](CCC(=O)Oc1ccc2nc(S(N)(=O)=O)sc2c1)[C@H]1CC[C@H]2[C@@H]3CC[C@@H]4C[C@H](O)CC[C@]4(C)[C@H]3CC[C@]12C | 2 | 9 | 40
37 | C[C@H](CCC(=O)NCCc1ccc(S(N)(=O)=O)cc1)[C@H]1CC[C@H]2[C@@H]3[C@@H](O)C[C@@H]4C[C@H](O)CC[C@]4(C)[C@H]3CC[C@]12C | 14 | 34 | 295
38 | C[C@H](CCC(=O)Nc1ccc(S(N)(=O)=O)cc1Cl)[C@H]1CC[C@H]2[C@@H]3C(=O)C[C@@H]4CC(=O)CC[C@]4(C)[C@H]3CC(=O)[C@]12C | 13 | 30 | 200
